Measurements taken from patent publication US20030215498A1, “Rapidly disintegrating comressed tablets comprising biologically active compounds” (priority 2002, published 2003).

Assay: Dissolution testing of acetaminophen particles (USP XXIII, Apparatus 2, paddle)
Format: physicochemical
Settings: 900 ml water, 37° C., USP Apparatus 2, paddle 50 rpm, amount equivalent to 500 mg acetaminophen, n = 6
Description: Dissolution testing of the acetaminophen particles was carried out using USP XXIII “Acetaminophen capsules” and “Dissolution '711”, which are incorporated herein by reference. The method was adapted to use a relevant quantity of powder, i.e. an amount equivalent to 500 mg of acetaminophen in the dissolution bowl. This quantity represents a standard amount of […] in marketed U.S.A. over-the-counter (OTC) products. The operating conditions included 900 ml of water at 37° C. in a USP Apparatus 2 with paddle speed set at 50 rpm. FIG. 1 presents the dissolution-curves of acetaminophen and 4.6% lipid-based coated acetaminophen, i.e. 4.6% coating and 95.4% acetaminophen.

Dissolution % (5 min): 66.3%
Dissolution % (10 min): 90.8%
Dissolution % (15 min): 95.7%
Dissolution % (20 min): 97.1%
Dissolution % (30 min): 97.5%
Dissolution % (45 min): 97.7%
Dissolution % (60 min): 97.7%
Structure (SMILES): CC(=O)Nc1ccc(O)cc1 [100% Acetaminophen, Acetaminophen]
